The IC50 is the concentration that gives 50% inhibition. The low end stands for greater potency in that assay, the high end for weaker potency in that assay.

This note sets out measurements from patent US12435051B2, “Dual modulator of mGluR5 and 5-HT2A receptor, and use thereof” (Vivozon Inc., priority 2020, dated 2025).

In test [1] the target is T1, human 5-HT2AR (Homo sapiens, UniProt P28223).
T1 construct: expressed in transfected cells; host or cells: HEK293
As to the kind of experiment: HTRF-based IP1 accumulation assay (5-HT2AR antagonistic effect). The test is classed as cell-based. To be noted: HEK293 cells overexpressing human 5-HT2AR; serotonin at EC80. As to the method:
The 5-HT2AR antagonistic effect of the test compounds was confirmed by measuring the production amount of IP1 using the HEK293 cell line permanently overexpressing the human 5-HT2AR. The test compounds were dissolved in 100% DMSO to a final concentration of 10 mM. The starting concentration of 10 μM was prepared from the stock solution, followed by serial dilutions to prepare working solutions in a buffer containing lithium chloride (LiCl). The cells and compounds prepared in the test buffer were placed in a 96-well plate and incubated at room temperature for 10 minutes. Serotonin of EC80 concentration was added, followed by incubation at 37° C. for 30 minutes in a light-shielding state. To measure IP1 accumulation in cells, JP1-d2 acceptor and IP1-Cryptate donor-which are HTRF-based substances for fluorescence signals-were added and incubated for 1 hour at room temperature in a light-shielded state. The fluorescent emission signals of acceptor and donor were detected, and HTRF ratio values were substracted by mean value of serotonin control. The percentage of activation was calculated by normalization of the serotonin control (0%) and IP1 control (100%). The IC50 values of the test compounds are represented in Table 1. (+: 1,000-2,000 nM, ++: 500-1,000 nM, +++: 100-500 nM, ++++: less than 100 nM).
In general terms: Time-resolved FRET reads energy transfer from a long-lived donor to a nearby acceptor.

The target of test [2] is T2, mGluR5 (Homo sapiens, UniProt P41594).
T2 construct: expressed in transfected cells; host or cells: HEK293
In words: Fluorescence-based Ca2+ mobilization assay. To be noted: HEK293 cells overexpressing mGluR5; L-glutamate at EC80. The test is classed as cell-based. As to the method: In order to measure the activity on the mGluR5, an experiment was carried out to check the change in the intracellular Ca^2+ level using the HEK293 cell line permanently overexpressing the mGluR5. The cells in the cell culture medium were aliquoted into a 384-well plate coated with poly-D-lysine and cultured in a 37° C. incubator supplied with 5% CO2. The next day, the medium was removed and a dye loading buffer—in which a reagent capable of measuring Ca^2+ was dissolved—was added, and then incubated at 37° C. for 60 minutes. The test compounds were dissolved in 100% DMSO at a final concentration of 10 mM to make a stock solution. The starting concentration of […] was prepared from the stock solution, followed by serial dilutions to prepare working solutions (test compound working solutions). The test compound working solutions were added to the cells that were incubated in the dye loading buffer, which were maintained for 30 minutes at room temperature in a light-shielding state before measurement. The Ca^2+ level change induced by L-glutamate at EC80 concentration was measured for 2 minutes using FLIPR Tetra (MDS Analytical Technologies). The fluorescent Ca^2+ signal values in the presence of the test compounds were normalized to the fluorescent signal elicited by […] concentration of L-glutamate as 100% and that elicited by vehicle as 0% to estimate % inhibition of the test compounds. The efficacy of the test compounds was calculated as IC50 values and represented in Table 1. (+: 1,000-2,000 nM, ++: 500-1,000 nM, +++: 100-500 nM, ++++: less than 100 nM).
On the technique in general: Calcium flux is commonly read through the fluorescence of an indicator in the cells.

Bounds are passed on as bounds.

T1 sequence (P28223 whole entry): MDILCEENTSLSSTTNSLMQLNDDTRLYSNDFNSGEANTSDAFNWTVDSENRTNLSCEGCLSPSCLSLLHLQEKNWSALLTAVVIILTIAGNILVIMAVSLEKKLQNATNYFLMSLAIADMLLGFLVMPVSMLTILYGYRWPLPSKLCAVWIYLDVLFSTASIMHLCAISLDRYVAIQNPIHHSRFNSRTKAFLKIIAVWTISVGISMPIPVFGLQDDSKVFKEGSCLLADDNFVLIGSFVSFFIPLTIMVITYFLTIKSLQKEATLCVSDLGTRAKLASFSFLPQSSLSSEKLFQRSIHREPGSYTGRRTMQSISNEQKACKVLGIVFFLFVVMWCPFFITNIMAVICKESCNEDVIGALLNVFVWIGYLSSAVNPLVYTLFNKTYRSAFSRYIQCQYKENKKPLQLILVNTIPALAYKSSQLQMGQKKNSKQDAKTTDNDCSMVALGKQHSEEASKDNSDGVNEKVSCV
T2 sequence (P41594 21-1212): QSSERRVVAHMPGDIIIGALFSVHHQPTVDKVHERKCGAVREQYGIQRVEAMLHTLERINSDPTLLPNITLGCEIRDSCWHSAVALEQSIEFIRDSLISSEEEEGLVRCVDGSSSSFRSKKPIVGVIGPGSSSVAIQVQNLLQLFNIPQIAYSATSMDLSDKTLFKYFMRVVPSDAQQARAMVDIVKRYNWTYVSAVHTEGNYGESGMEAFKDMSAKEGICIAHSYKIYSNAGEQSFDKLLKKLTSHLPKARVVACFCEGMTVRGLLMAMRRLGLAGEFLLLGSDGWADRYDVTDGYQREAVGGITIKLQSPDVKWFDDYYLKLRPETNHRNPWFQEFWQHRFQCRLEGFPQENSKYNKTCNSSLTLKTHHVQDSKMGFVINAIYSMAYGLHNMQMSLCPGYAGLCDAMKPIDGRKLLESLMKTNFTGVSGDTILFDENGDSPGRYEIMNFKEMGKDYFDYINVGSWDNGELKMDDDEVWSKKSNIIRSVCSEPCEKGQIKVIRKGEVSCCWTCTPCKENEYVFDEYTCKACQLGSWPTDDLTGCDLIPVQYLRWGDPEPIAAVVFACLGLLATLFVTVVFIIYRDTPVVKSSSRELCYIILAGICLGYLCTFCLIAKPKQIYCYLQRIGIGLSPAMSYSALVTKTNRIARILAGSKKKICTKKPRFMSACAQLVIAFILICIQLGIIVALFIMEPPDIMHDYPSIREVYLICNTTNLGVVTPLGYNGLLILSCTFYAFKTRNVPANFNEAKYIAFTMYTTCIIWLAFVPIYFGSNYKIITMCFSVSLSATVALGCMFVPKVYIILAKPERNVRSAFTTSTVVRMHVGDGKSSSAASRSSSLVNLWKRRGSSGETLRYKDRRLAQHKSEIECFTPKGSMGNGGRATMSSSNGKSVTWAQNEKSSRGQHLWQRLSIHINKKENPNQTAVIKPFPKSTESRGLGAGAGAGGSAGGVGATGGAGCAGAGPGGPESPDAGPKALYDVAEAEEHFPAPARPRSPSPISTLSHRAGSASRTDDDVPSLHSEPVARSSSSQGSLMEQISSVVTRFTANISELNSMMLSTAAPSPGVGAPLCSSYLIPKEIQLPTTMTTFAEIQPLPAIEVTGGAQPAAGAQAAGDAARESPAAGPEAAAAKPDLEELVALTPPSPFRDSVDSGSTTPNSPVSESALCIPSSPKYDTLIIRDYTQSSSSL

As for `O=C(NCC1(N2CCOCC2)CCC1)c1ccc(C#Cc2ccccc2F)cc1` [Example 96, 4-((2-fluorophenyl)ethynyl)-N-((1-morpholinocyclobutyl)methyl)benzamide], the figures for the IC50 in test [1] and in test [2] were 500 to 1000 nM and 1000 to 2000 nM, respectively.
For `CC1(CNC(=O)c2ccc(C#Cc3ccccc3F)cc2)CC(F)(F)C1` [Example 97, N-((3,3-difluoro-1-methylcyclobutyl)methyl)-4-((2-fluorophenyl)ethynyl)benzamide], in that order: 1000 to 2000 nM and < 100 nM.
Take `CC1(CNC(=O)c2ccc(C#Cc3ccccc3F)cc2)CCCO1` (stereo not drawn) [Example 98, 4-((2-fluorophenyl)ethynyl)-N-((2-methyltetrahydrofuran-2-yl)methyl)benzamide]: the IC50 in test [1] was 500 to 1000 nM; in test [2], < 100 nM.
As for `O=C(NC[C@H]1CCCOC1)c1ccc(C#Cc2ccc(F)cc2)cc1` [Example 99, (R)-4-((4-fluorophenyl)ethynyl)-N-((tetrahydro-2H-pyran-3-yl)methyl)benzamide], the IC50 in test [1] is 100 to 500 nM; in test [2], < 100 nM.
The like results for `O=C(NC[C@@H]1CCCOC1)c1ccc(C#Cc2ccc(F)cc2)cc1` [Example 100, (S)-4-((4-fluorophenyl)ethynyl)-N-((tetrahydro-2H-pyran-3-yl)methyl)benzamide] were, in that order, 500 to 1000 nM and 100 to 500 nM.
`O=C(NC[C@H]1CCOC1)c1ccc(C#Cc2ccc(F)cc2)cc1` [Example 101, (R)-4-((4-fluorophenyl)ethynyl)-N-((tetrahydrofuran-3-yl)methyl)benzamide]: the IC50 in test [1] was 100 to 500 nM; in test [2] it was < 100 nM.
For `O=C(NC[C@@H]1CCOC1)c1ccc(C#Cc2ccc(F)cc2)cc1` [Example 102, (S)-4-((4-fluorophenyl)ethynyl)-N-((tetrahydrofuran-3-yl)methyl)benzamide], in that order: < 100 nM and 100 to 500 nM.
The like results for `O=C(NCC1(F)COC1)c1ccc(C#Cc2ccccc2F)cc1` [Example 103, N-((3-fluorooxetan-3-yl)methyl)-4-((2-fluorophenyl)ethynyl)benzamide] were, in that order, 1000 to 2000 nM and 1000 to 2000 nM.
For `CC1(CNC(=O)c2ccc(C#Cc3ccc(F)cc3)cc2)CCCCC1` [Example 104, 4-((4-fluorophenyl)ethynyl)-N-((1-methylcyclohexyl)methyl)benzamide], in that order: 1000 to 2000 nM and < 100 nM.
In the case of `CC1(CNC(=O)c2ccc(C#Cc3ccccc3F)cc2)CCC1` [Example 105, 4-((2-fluorophenyl)ethynyl)-N-((1-methylcyclobutyl)methyl)benzamide], the IC50 in test [1] was 500 to 1000 nM; in test [2] it was < 100 nM.
Turning to `CC1(CNC(=O)c2ccc(C#Cc3ccc(F)cc3)cc2)CCC1` [Example 106, 4-((4-fluorophenyl)ethynyl)-N-((1-methylcyclobutyl)methyl)benzamide], the 50% inhibitory concentration (IC50) in test [1] was 100 to 500 nM; in test [2] it was < 100 nM.
Turning to `CC1(CNC(=O)c2ccc(C#Cc3ccc(F)cc3F)cc2)CCC1` [Example 107, 4-((2,4-difluorophenyl)ethynyl)-N-((1-methylcyclobutyl)methyl)benzamide], the IC50 in test [1] and in test [2] was < 100 nM throughout.
For the compound `CC1(CNC(=O)c2ccc(C#Cc3ccc(F)cc3F)cc2)CCCC1` [Example 108, 4-((2,4-difluorophenyl)ethynyl)-N-((1-methylcyclopentyl)methyl)benzamide], the IC50 in test [1] is 100 to 500 nM; in test [2], < 100 nM.
For `O=C(NC[C@H]1CCOC1)c1ccc(C#Cc2ccc(F)cc2F)cc1` [Example 109, (R)-4-((2,4-difluorophenyl)ethynyl)-N-((tetrahydrofuran-3-yl)methyl)benzamide], in that order: 100 to 500 nM and 500 to 1000 nM.
For the compound `O=C(NC[C@H]1CCCO1)c1ccc(C#Cc2ccc(F)cc2)cc1` [Example 110, (R)-4-((4-fluorophenyl)ethynyl)-N-((tetrahydrofuran-2-yl)methyl)benzamide], the half-inhibitory concentration (IC50) is 100 to 500 nM in test [1] and < 100 nM in test [2].
For `O=C(NC[C@@H]1CCCO1)c1ccc(C#Cc2ccc(F)cc2)cc1` [Example 111, (S)-4-((4-fluorophenyl)ethynyl)-N-((tetrahydrofuran-2-yl)methyl)benzamide], in that order: 100 to 500 nM and 100 to 500 nM.
The like results for `CCC1(CNC(=O)c2ccc(C#Cc3ccc(F)cc3)cc2)COC1` [Example 112, N-((3-ethyloxetan-3-yl)methyl)-4-((4-fluorophenyl)ethynyl)benzamide] were, in that order, 100 to 500 nM and 100 to 500 nM.
The like results for `O=C(NC[C@@H]1CCOC1)c1ccc(C#Cc2ccc(F)cc2F)cc1` [Example 113, (S)-4-((2,4-difluorophenyl)ethynyl)-N-((tetrahydrofuran-3-yl)methyl)benzamide] were, in that order, < 100 nM and 500 to 1000 nM.
`O=C(NC[C@H]1CCCO1)c1ccc(C#Cc2ccc(F)cc2F)cc1` [Example 114, (R)-4-((2,4-difluorophenyl)ethynyl)-N-((tetrahydrofuran-2-yl)methyl)benzamide]: the IC50 in test [1] and in test [2] was < 100 nM in each case.
Turning to `O=C(NCC1CCCCO1)c1ccc(C#Cc2ccc(F)cc2F)cc1` (stereo not drawn) [Example 115, 4-((2,4-difluorophenyl)ethynyl)-N-((tetrahydro-2H-pyran-2-yl)methyl)benzamide], the IC50 in test [1] is < 100 nM; in test [2], 100 to 500 nM.
The like results for `CC1(CNC(=O)c2ccc(C#Cc3ccc(F)cc3)cc2)CCCO1` (stereo not drawn) [Example 116, 4-((4-fluorophenyl)ethynyl)-N-((2-methyltetrahydrofuran-2-yl)methyl)benzamide] were, in that order, < 100 nM and < 100 nM.
Regarding `O=C(NC[C@@H]1CCCO1)c1ccc(C#Cc2ccc(F)cc2F)cc1` [Example 117, (S)-4-((2,4-difluorophenyl)ethynyl)-N-((tetrahydrofuran-2-yl)methyl)benzamide], the IC50 in test [1] is < 100 nM; in test [2], 500 to 1000 nM.
Turning to `O=C(NCC1CCO1)c1ccc(C#Cc2ccc(F)cc2F)cc1` (stereo not drawn) [Example 118, 4-((2,4-difluorophenyl)ethynyl)-N-(oxetan-2-ylmethyl)benzamide], the IC50 in test [1] was < 100 nM; in test [2], 1000 to 2000 nM.
As to `CC1(CNC(=O)c2ccc(C#Cc3ccc(F)cc3F)cc2)CCCO1` (stereo not drawn) [Example 119, 4-((2,4-difluorophenyl)ethynyl)-N-((2-methyltetrahydrofuran-2-yl)methyl)benzamide], the IC50 in test [1] and in test [2] was < 100 nM each time.
Take `O=C(NCC1CC(F)(F)C1)c1ccc(C#Cc2ccc(F)cc2F)cc1` [Example 120, N-((3,3-difluorocyclobutyl)methyl)-4-((2,4-difluorophenyl)ethynyl)benzamide]: the results for the half-maximal inhibitory concentration (IC50) in test [1] and in test [2] were < 100 nM and 100 to 500 nM, respectively.
For `O=C(NCC1CCC(F)(F)CC1)c1ccc(C#Cc2ccc(F)cc2F)cc1` [Example 121, N-((4,4-difluorocyclohexyl)methyl)-4-((2,4-difluorophenyl)ethynyl)benzamide], the IC50 in test [1] was 500 to 1000 nM; in test [2], < 100 nM.
For `CCC1(CNC(=O)c2ccc(C#Cc3ccc(F)cc3F)cc2)COC1` [Example 122, 4-((2,4-difluorophenyl)ethynyl)-N-((3-ethyloxetan-3-yl)methyl)benzamide], in that order: < 100 nM and 100 to 500 nM.
